Our source for the IC50 values is US20240140931A1, “TRICYCLIC COMPOUNDS AND USES THEREOF” (HUTCHMED LIMITED, priority 2021, published 2024).

What is called IC50 is the point on the concentration scale where inhibition reaches its midpoint.

The target in test [1] is Human full-length SHP2 recombinant protein (Homo sapiens (Human), UniProt Q06124). Put plainly: Assay of full-length SHP2 phosphatase activity. The class given is biochemical. The following applies: DiFMUP substrate, with activating peptide. In outline: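 Full-length human SHP2 preincubated 30 min at RT with activating peptide and compound (1% DMSO final). DiFMUP substrate added, reaction 60 min at 25 °C in dark. Fluorescence at ex 355/em 460 nm; IC50 from 4-parameter fit against enzyme-free and vehicle controls.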
Chain of Human full-length SHP2 recombinant protein (Q06124 whole entry): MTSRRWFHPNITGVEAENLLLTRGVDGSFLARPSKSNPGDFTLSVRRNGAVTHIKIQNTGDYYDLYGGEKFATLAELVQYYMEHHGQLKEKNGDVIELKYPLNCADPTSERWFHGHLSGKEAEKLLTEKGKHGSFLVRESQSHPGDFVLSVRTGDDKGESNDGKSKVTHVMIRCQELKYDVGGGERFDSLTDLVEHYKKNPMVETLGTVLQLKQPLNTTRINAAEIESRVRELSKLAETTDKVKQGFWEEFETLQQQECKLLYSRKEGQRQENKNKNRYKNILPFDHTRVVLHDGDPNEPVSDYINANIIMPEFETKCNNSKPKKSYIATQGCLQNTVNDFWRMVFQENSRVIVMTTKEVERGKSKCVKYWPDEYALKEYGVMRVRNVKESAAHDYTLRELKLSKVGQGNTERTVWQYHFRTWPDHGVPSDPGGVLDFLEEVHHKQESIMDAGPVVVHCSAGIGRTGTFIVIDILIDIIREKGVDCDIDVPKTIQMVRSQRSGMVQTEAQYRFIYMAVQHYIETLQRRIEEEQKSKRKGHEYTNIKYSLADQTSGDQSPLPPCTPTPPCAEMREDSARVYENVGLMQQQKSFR

The test system of test [2] is pERK1/2 (Thr202/Tyr204) in Miapaca2 cells. Put plainly: Assay of intracellular pERK1/2 (Thr202/Tyr204) phosphorylation. Conditions: pERK1/2 (Thr202/Tyr204) HTRF. It is filed as cell-based. A digest of the protocol: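 Miapaca2 cells treated 2 h at 37 °C with compound (3-fold series; final DMSO 0.5%), then lysed 1 h. pERK1/2 (Thr202/Tyr204) detected by HTRF (665/615 nm ratio) after 2 h at 25 °C; normalized to cell-free lysis buffer and DMSO-treated cell controls; IC50 by four-parameter fit.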
On the technique in general: In TR-FRET formats the signal depends on donor and acceptor labels being close together.

Test [3] deals with Miapaca2 3D spheroids. Briefly: Assay of cell proliferation on Miapaca2 3D spheroids. It is filed as cell-based. The following applies: CellTiter-Glo 3D, 5 days treatment. A digest of the protocol: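 Miapaca2 spheroids (300 cells/well, formed by day 2) exposed 5 days at 37 °C to compound in 3-fold dilution series, 0.1% DMSO final. Viability by CellTiter-Glo 3D luminescence; survival % relative to day-2 and day-7 DMSO controls, IC50 from four-parameter logistic fit.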
A general note: In ATP-based viability assays light output follows the ATP content of the culture.

The mark [4] stands for this setting: Homo sapiens, MIA PaCa-2, 120 h.

On to `COCC#Cc1cc(F)c2c(c1)[C@@H](N)C1(CCN(c3ncc(Sc4ccnc(C)n4)c4nccn34)CC1)C2` [Compound 175], for which the IC50 was 14 nM in test [1]; 122 nM in test [2] (Homo sapiens, MIA PaCa-2, 2 h); 100 nM in test [3] (setting [4]).

As for `CNC(=O)C#Cc1ccc2c(c1)[C@@H](N)C1(CCN(c3ncc(Sc4ccnc(N)c4Cl)nc3C)CC1)C2` [Compound 232], the concentration for half-maximal inhibition (IC50) in test [1] is 2 nM; in test [2] (Homo sapiens, MIA PaCa-2, 2 h) it was 8 nM; in test [3] (setting [4]) it was 0.9 nM.

With `CNC(=O)C#Cc1ccc2c(c1)[C@@H](N)C1(CCN(c3cnc(Sc4ccnc(N)c4Cl)c(N)n3)CC1)C2` [Compound 229, (S)-3-(1-amino-1′-(6-amino-5-((2-amino-3-chloropyridin-4-yl)thio)pyrazin-2-yl)-1,3-dihydrospiro[indene-2,4′-piperidin]-6-yl)-N-methylpropiolamide], the half-maximal inhibitory concentration (IC50) stood at 1 nM in test [1]; 2 nM in test [2] (Homo sapiens, MIA PaCa-2, 2 h); 0.5 nM in test [3] (setting [4]).

As for `Cc1nc(Sc2ccnc(N)c2Cl)c(N)nc1N1CCC2(CC1)Cc1ccc(C#CC(=O)O)cc1[C@H]2N` [Compound 283], the IC50 in test [1] amounted to 1 nM; in test [2] (Homo sapiens, MIA PaCa-2, 2 h), 737 nM; in test [3] (setting [4]) it was 243 nM.

As to `C#Cc1ccc2c(c1)[C@@H](N)C1(CCN(c3nc(N)c(Sc4ccnc(N)c4Cl)c(=O)n3C)CC1)C2` [Compound 282], the IC50 in test [1] was determined as 1 nM; in test [2] (Homo sapiens, MIA PaCa-2, 2 h), 3 nM; in test [3] (setting [4]), 2 nM.

For `COCC#Cc1ccc2c(c1)[C@@H](N)C1(CCN(c3cc(=O)n(-c4ccc(F)c(OC)c4Cl)c(C)n3)CC1)C2` [Compound 158], the results for the half-maximal inhibitory concentration (IC50) in test [1], in test [2] (2 hours) and in test [3] were 3 nM, 31 nM and 32 nM, respectively.

For `C#Cc1cc(F)c2c(c1)[C@@H](N)C1(CCN(c3ncc(Sc4ccnc(N)c4Cl)n4nccc34)CC1)C2` [Compound 176], the IC50 turned out to be 38 nM in test [1]; 41 nM in test [2] (Homo sapiens, MIA PaCa-2, 2 h); 97 nM in test [3] (setting [4]).

Take `CNC(=O)C#Cc1ccc2c(c1)[C@@H](N)C1(CCN(c3cnc(Sc4cccnc4Cl)cn3)CC1)C2` [Compound 231]: the half-inhibitory concentration (IC50) in test [1] is less than 0.5 nM; in test [2] (Homo sapiens, MIA PaCa-2, 2 h) it was 7 nM; in test [3] (setting [4]) it was 0.8 nM.

For the compound `C#Cc1ccc2c(c1)[C@@H](N)C1(CCN(c3cc(=O)n(-c4ccc(F)c(OC)c4Cl)c(C)n3)CC1)C2` [Compound 157], the results for the IC50 in test [1], in test [2] (2 hours) and in test [3] were 2 nM, 25 nM and 28 nM, respectively.

For the compound `CC#Cc1ccc2c(c1)[C@@H](N)C1(CCN(c3nc(C)n(-c4cccc(Cl)c4Cl)c(=O)c3F)CC1)C2` [Compound 170], the IC50 in test [1] is 9 nM; in test [2] (Homo sapiens, MIA PaCa-2, 2 h), 143 nM; in test [3] (setting [4]) it was 162 nM.

For the compound `C#Cc1ccc2c(c1)[C@@H](N)C1(CCN(c3cnc(Sc4ccnc(N)c4Cl)cn3)CC1)C2` [Compound 252], the IC50 in test [1] was found to be 1 nM; in test [2] (Homo sapiens, MIA PaCa-2, 2 h), 3 nM; in test [3] (setting [4]), 1 nM.

Regarding `CNC(=O)C#Cc1ccc2c(c1)[C@@H](N)C1(CCN(c3cnc(Sc4cc(N)nc(Cl)c4Cl)cn3)CC1)C2` [Compound 254], the IC50 in test [1] was determined as 3 nM; in test [2] (Homo sapiens, MIA PaCa-2, 2 h), 11 nM; in test [3] (setting [4]), 10 nM.

As for `CNC(=O)C#Cc1ccc2c(c1)[C@@H](N)C1(CCN(c3nc(N)c(Sc4ccnc(N)c4Cl)nc3F)CC1)C2` [Compound 239, (S)-3-(1-amino-1′-(6-amino-5-((2-amino-3-chloropyridin-4-yl)thio)-3-fluoropyrazin-2-yl)-1,3-dihydrospiro[indene-2,4′-piperidin]-6-yl)-N-methylpropiolamide], the concentration for half-maximal inhibition (IC50) in test [1] came out at 3 nM; in test [2] (Homo sapiens, MIA PaCa-2, 2 h), 15 nM; in test [3] (setting [4]), 2.1 nM.

As to `CNC(=O)C#Cc1ccc2c(c1)[C@@H](N)C1(CCN(c3ncc(Sc4ccnc(N)c4Cl)nn3)CC1)C2` [Compound 250], the IC50 in test [1] was determined as 1 nM; in test [2] (Homo sapiens, MIA PaCa-2, 2 h) it was 72 nM; in test [3] (setting [4]) it was 14 nM.

For `CNC(=O)C#Cc1ccc2c(c1)[C@@H](N)C1(CCN(c3cnc(Sc4ccnc(N)c4Cl)cn3)CC1)C2` [Compound 227], the IC50 was 1 nM in test [1]; 2 nM in test [2] (Homo sapiens, MIA PaCa-2, 2 h); 0.4 nM in test [3] (setting [4]).

`C#Cc1ccc2c(c1)[C@@H](N)C1(CCN(c3nc(N)c(-c4cn(C)c5ncccc45)c(=O)n3C)CC1)C2` [Compound 284]: the IC50 is 2 nM in test [1]; 5 nM in test [2] (Homo sapiens, MIA PaCa-2, 2 h); 4 nM in test [3] (setting [4]).

For the compound `CNC(=O)C#Cc1ccc2c(c1)[C@@H](N)C1(CCN(c3cnc(Sc4cccnc4C(F)(F)F)c(N)n3)CC1)C2` [Compound 236], the 50% inhibitory concentration (IC50) was 1.3 nM in test [1]; 3 nM in test [2] (Homo sapiens, MIA PaCa-2, 2 h); 1 nM in test [3] (setting [4]).

Take `CCCNC(=O)C#Cc1ccc2c(c1)[C@@H](N)C1(CCN(c3nc(N)c(Sc4ccnc(N)c4Cl)nc3C)CC1)C2` [Compound 237]: the half-inhibitory concentration (IC50) amounted to 3.9 nM in test [1]; 4 nM in test [2] (Homo sapiens, MIA PaCa-2, 2 h); 2.4 nM in test [3] (setting [4]).

Regarding `C#Cc1ccc2c(c1)[C@@H](N)C1(CCN(c3ncc(Sc4ccnc(N)c4Cl)c(N)n3)CC1)C2` [Compound 205], the results for the IC50 in test [1], in test [2] (2 hours) and in test [3] were 12 nM, 29 nM and 68 nM, respectively.

Take `Nc1nc(N2CCC3(CC2)Cc2ccc(C#CC(=O)NC4CC4)cc2[C@H]3N)c(Cl)nc1Sc1ccnc(N)c1Cl` [Compound 230]: the concentration for half-maximal inhibition (IC50) stood at 10 nM in test [1]; 31 nM in test [2] (Homo sapiens, MIA PaCa-2, 2 h); 7.4 nM in test [3] (setting [4]).

With `CNC(=O)C#Cc1ccc2c(c1)[C@@H](N)C1(CCN(c3ncc(Sc4ccnc(N)c4Cl)c4nccn34)CC1)C2` [Compound 172], the IC50 in test [1] is 1 nM; in test [2] (Homo sapiens, MIA PaCa-2, 2 h) it was 8 nM; in test [3] (setting [4]), 9 nM.

Regarding `CNC(=O)C#Cc1ccc2c(c1)[C@@H](N)C1(CCN(c3cnc(N4CCCc5ncccc54)cn3)CC1)C2` [Compound 251], the IC50 was determined as 1 nM in test [1]; 24 nM in test [2] (Homo sapiens, MIA PaCa-2, 2 h); 29 nM in test [3] (setting [4]).

As to `COCC#Cc1ccc2c(c1)[C@@H](N)C1(CCN(c3ncc(Sc4ccnc(N)c4Cl)c(=O)n3C)CC1)C2` [Compound 291], the IC50 in test [1] was found to be 1 nM; in test [2] (Homo sapiens, MIA PaCa-2, 2 h) it was 9 nM; in test [3] (setting [4]), 0.3 nM.

Turning to `CCNC(=O)C#Cc1ccc2c(c1)[C@@H](N)C1(CCN(c3cnc(Sc4ccnc(N)n4)cn3)CC1)C2` [Compound 260], the IC50 in test [1] worked out at 1 nM; in test [2] (Homo sapiens, MIA PaCa-2, 2 h), 5 nM; in test [3] (setting [4]), 2 nM.

With `CNC(=O)C#Cc1ccc2c(c1)[C@@H](N)C1(CCN(c3cnc(Sc4cc(N)nc(Cl)c4Cl)c(N)n3)CC1)C2` [Compound 253], the IC50 is 1 nM in test [1]; 10 nM in test [2] (Homo sapiens, MIA PaCa-2, 2 h); 2 nM in test [3] (setting [4]).

Regarding `CNC(=O)C#Cc1ccc2c(c1)[C@@H](N)C1(CCN(c3ncc(Sc4ccnc(N)c4Cl)nc3C)CC1)O2` [Compound 266], the 50% inhibitory concentration (IC50) in test [1] was determined as 5 nM; in test [2] (Homo sapiens, MIA PaCa-2, 2 h) it was 26 nM; in test [3] (setting [4]), 10 nM.

On to `CNC(=O)C#Cc1ccc2c(c1)[C@@H](N)C1(CCN(c3nc(C)c(Sc4ccnc(N)c4Cl)nc3CO)CC1)C2` [Compound 199], for which the IC50 is 1 nM in test [1]; 5 nM in test [2] (Homo sapiens, MIA PaCa-2, 2 h); 12 nM in test [3] (setting [4]).

For the compound `CCNC(=O)C#Cc1ccc2c(c1)[C@@H](N)C1(CCN(c3ncc(Sc4ccnc(N)n4)nc3C)CC1)C2` [Compound 261], the IC50 in test [1] came to 0.9 nM; in test [2] (Homo sapiens, MIA PaCa-2, 2 h) it was 7 nM; in test [3] (setting [4]) it was 2 nM.

In the case of `CNC(=O)C#Cc1ccc2c(c1)[C@@H](N)C1(CCN(c3nc(N)c(Sc4ccnc(N)c4Cl)nc3Cl)CC1)C2` [Compound 222, (S)-3-(1-amino-1′-(6-amino-5-((2-amino-3-chloropyridin-4-yl)thio)-3-chloropyrazin-2-yl)-1,3-dihydrospiro[indene-2,4′-piperidin]-6-yl)-N-methylpropiolamide], the IC50 is 4 nM in test [1]; 6 nM in test [2] (Homo sapiens, MIA PaCa-2, 2 h); 15 nM in test [3] (setting [4]).

`CNC(=O)C#Cc1ccc2c(c1)[C@@H](N)C1(CCN(c3nc(N)c(Sc4ccnc(OC)c4Cl)nc3C)CC1)C2` [Compound 188]: the IC50 worked out at 5 nM in test [1]; 14 nM in test [2] (Homo sapiens, MIA PaCa-2, 2 h); 47 nM in test [3] (setting [4]).
